Reference: patent US9637470B2, “Treatment for substance use disorders and stress disorders” (Baylor College of Medicine, priority 2013, dated 2017)

How the values were obtained:
healthy volunteers = test: Single ascending dose study in healthy volunteers; format: in vivo, human
Procedure: A single ascending dose, double-blind, placebo controlled study enrolled 50 participants divided into 10 per dosing group. In each group of 10 volunteers, 7 received active medication and 3 received placebo. The doses tested were 10, 25, 75, 150, and 300 mg. […] Across most doses, the elimination half-life was […].

dogs = test: Telemetry studies in dogs (ECG, QT); settings: doses up to 20 mg/kg
micronucleus = test: Genotoxicity testing, micronucleus

c1ccc2cc([C@H]([C@H]3CCCNC3)n3ncnn3)ccc2c1 [Example Compound 2, (3S)-3-[(S)-naphthalen-2-yl(2H-tetrazol-2-yl)methyl]piperidine]
plasma concentration versus dose (healthy volunteers; single dose 10, 25, 75, 150, and 300 mg): proportional to dose
primary adverse effects (healthy volunteers; single dose, increasing in prevalence at 75 mg and higher): nausea, dizziness, and headache
safety (healthy volunteers; single doses up to 300 mg): safe
effects on ECG or QT (dogs): no effects
genotoxicity, micronucleus (micronucleus): negative
